Assay results as given in PubChem BioAssay (NCI).
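Interpolation was linear, between the two tested concentrations surrounding the appropriate level; five concentrations were tested over 48 hours in 96-well plates. GI50 = concentration required for 50% inhibition of growth. TGI is the concentration that stops growth completely.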

Legend:
Test in all cases: NCI anticancer screen, dose series, 48 h
786-0 renal = system: 786-0 renal
A498 renal = system: A498 renal
A549 NSCLC = system: A549 NSCLC
ACHN renal = system: ACHN renal
BT-549 breast = system: BT-549 breast
CAKI-1 renal = system: CAKI-1 renal
CCRF-CEM leukemia = system: CCRF-CEM leukemia
COLO 205 colon = system: COLO 205 colon
DU-145 prostate = system: DU-145 prostate
EKVX NSCLC = system: EKVX NSCLC
HCC-2998 colon = system: HCC-2998 colon
HCT-116 colon = system: HCT-116 colon
HCT-15 colon = system: HCT-15 colon
HL-60(TB) leukemia = system: HL-60(TB) leukemia
HOP-62 NSCLC = system: HOP-62 NSCLC
HOP-92 NSCLC = system: HOP-92 NSCLC
HS 578T breast = system: HS 578T breast
HT29 colon = system: HT29 colon
IGROV1 ovarian = system: IGROV1 ovarian
K-562 leukemia = system: K-562 leukemia
KM12 colon = system: KM12 colon
M14 melanoma = system: M14 melanoma
MALME-3M melanoma = system: MALME-3M melanoma
MCF7 breast = system: MCF7 breast
MDA-MB-231 breast = system: MDA-MB-231 breast
MDA-MB-435 = system: MDA-MB-435
MOLT-4 leukemia = system: MOLT-4 leukemia
NCI-H226 lung = system: NCI-H226 lung
NCI-H23 lung = system: NCI-H23 lung
NCI-H460 lung = system: NCI-H460 lung
NCI-H522 lung = system: NCI-H522 lung
NCI/ADR-RES ovarian = system: NCI/ADR-RES ovarian
OVCAR-4 ovarian = system: OVCAR-4 ovarian
OVCAR-5 ovarian = system: OVCAR-5 ovarian
OVCAR-8 ovarian = system: OVCAR-8 ovarian
PC-3 prostate = system: PC-3 prostate
RXF 393 renal = system: RXF 393 renal
SF-268 CNS = system: SF-268 CNS
SF-295 CNS = system: SF-295 CNS
SF-539 CNS = system: SF-539 CNS
SK-MEL-2 melanoma = system: SK-MEL-2 melanoma
SK-MEL-28 melanoma = system: SK-MEL-28 melanoma
SK-MEL-5 melanoma = system: SK-MEL-5 melanoma
SK-OV-3 ovarian = system: SK-OV-3 ovarian
SN12C renal = system: SN12C renal
SNB-19 CNS = system: SNB-19 CNS
SNB-75 CNS = system: SNB-75 CNS
SR leukemia = system: SR leukemia
SW-620 colon = system: SW-620 colon
T-47D breast = system: T-47D breast
TK-10 renal = system: TK-10 renal
U251 CNS = system: U251 CNS
UACC-257 melanoma = system: UACC-257 melanoma
UACC-62 melanoma = system: UACC-62 melanoma

`COc1ccc(-c2csc(N(C(=O)N3CCN(c4cc5c(cc4F)c(=O)c(C(=O)O)cn5C4CC4)CC3)c3ccccc3)n2)cc1` gave a GI50 (786-0 renal) of 1.15 µM, a TGI (786-0 renal) of over 66 µM and a GI50 (A498 renal) of 1.34 µM. For the same molecule, the TGI (A498 renal) was 6.42 µM, the GI50 (A549 NSCLC) was 3.01 µM and the TGI (A549 NSCLC) was 12.1 µM. For the same molecule, the GI50 (ACHN renal) was 1.85 µM, the TGI (ACHN renal) was 5.09 µM and the GI50 (BT-549 breast) was 1.6 µM. For the same molecule, the TGI (BT-549 breast) was 7.63 µM, the GI50 (CAKI-1 renal) was 2.46 µM and the TGI (CAKI-1 renal) was 8.76 µM. It also gave a GI50 (CCRF-CEM leukemia) of 3.06 µM, a TGI (CCRF-CEM leukemia) of over 100 µM and a GI50 (COLO 205 colon) of 3 µM. For the same molecule, the TGI (COLO 205 colon) was 9.22 µM, the GI50 (DU-145 prostate) was 1.49 µM and the TGI (DU-145 prostate) was over 100 µM. The GI50 (EKVX NSCLC) was 3.3 µM, the TGI (EKVX NSCLC) was over 100 µM and the GI50 (HCC-2998 colon) was 4.13 µM. It also gave a TGI (HCC-2998 colon) of over 100 µM, a GI50 (HCT-116 colon) of 0.897 µM and a TGI (HCT-116 colon) of over 63.7 µM. It also gave a GI50 (HCT-15 colon) of 3.19 µM, a TGI (HCT-15 colon) of over 100 µM and a GI50 (HL-60(TB) leukemia) of 2.34 µM. For the same molecule, the TGI (HL-60(TB) leukemia) was 5.94 µM, the GI50 (HOP-62 NSCLC) was 1.12 µM and the TGI (HOP-62 NSCLC) was over 79 µM. For the same molecule, the GI50 (HOP-92 NSCLC) was 0.597 µM, the TGI (HOP-92 NSCLC) was 2.14 µM and the GI50 (HS 578T breast) was 1.48 µM. It also gave a TGI (HS 578T breast) of over 100 µM, a GI50 (HT29 colon) of 3.62 µM and a TGI (HT29 colon) of 46.2 µM. It also gave a GI50 (IGROV1 ovarian) of 1.21 µM, a TGI (IGROV1 ovarian) of over 100 µM and a GI50 (K-562 leukemia) of 3.1 µM. The TGI (K-562 leukemia) was over 100 µM, the GI50 (KM12 colon) was 3.41 µM and the TGI (KM12 colon) was over 100 µM. For the same molecule, the GI50 (M14 melanoma) was 3.7 µM, the TGI (M14 melanoma) was over 100 µM and the GI50 (MALME-3M melanoma) was 2.64 µM. It also gave a TGI (MALME-3M melanoma) of 7.54 µM, a GI50 (MCF7 breast) of 3.09 µM and a TGI (MCF7 breast) of over 100 µM. The GI50 (MDA-MB-231 breast) was 2.44 µM, the TGI (MDA-MB-231 breast) was 8.13 µM and the GI50 (MDA-MB-435) was 3.51 µM. It also gave a TGI (MDA-MB-435) of over 100 µM, a GI50 (MOLT-4 leukemia) of 3.78 µM and a TGI (MOLT-4 leukemia) of over 100 µM. For the same molecule, the GI50 (NCI-H226 lung) was 3.18 µM, the TGI (NCI-H226 lung) was 21.7 µM and the GI50 (NCI-H23 lung) was 2.96 µM. It also gave a TGI (NCI-H23 lung) of 18.4 µM, a GI50 (NCI-H460 lung) of 3.12 µM and a TGI (NCI-H460 lung) of over 100 µM. For the same molecule, the GI50 (NCI-H522 lung) was 2.16 µM, the TGI (NCI-H522 lung) was 6.8 µM and the GI50 (NCI/ADR-RES ovarian) was 3.78 µM. The TGI (NCI/ADR-RES ovarian) was over 100 µM, the GI50 (OVCAR-4 ovarian) was 1.56 µM and the TGI (OVCAR-4 ovarian) was over 100 µM. The GI50 (OVCAR-5 ovarian) was 3.29 µM, the TGI (OVCAR-5 ovarian) was over 100 µM and the GI50 (OVCAR-8 ovarian) was 2.82 µM. It also gave a TGI (OVCAR-8 ovarian) of over 100 µM, a GI50 (PC-3 prostate) of 2.77 µM and a TGI (PC-3 prostate) of over 100 µM. For the same molecule, the GI50 (RXF 393 renal) was 0.789 µM, the TGI (RXF 393 renal) was 14.8 µM and the GI50 (SF-268 CNS) was 3.2 µM. It also gave a TGI (SF-268 CNS) of over 100 µM, a GI50 (SF-295 CNS) of 2.49 µM and a TGI (SF-295 CNS) of 8.61 µM. For the same molecule, the GI50 (SF-539 CNS) was 2.93 µM, the TGI (SF-539 CNS) was 48.7 µM and the GI50 (SK-MEL-2 melanoma) was 2.2 µM. It also gave a TGI (SK-MEL-2 melanoma) of 5.22 µM, a GI50 (SK-MEL-28 melanoma) of 5.17 µM and a TGI (SK-MEL-28 melanoma) of over 100 µM. For the same molecule, the GI50 (SK-MEL-5 melanoma) was 2.86 µM, the TGI (SK-MEL-5 melanoma) was 8.39 µM and the GI50 (SK-OV-3 ovarian) was 2.49 µM. It also gave a TGI (SK-OV-3 ovarian) of 7.83 µM, a GI50 (SN12C renal) of 2.95 µM and a TGI (SN12C renal) of over 100 µM. It also gave a GI50 (SNB-19 CNS) of 1.11 µM, a TGI (SNB-19 CNS) of over 100 µM and a GI50 (SNB-75 CNS) of 0.812 µM. It also gave a TGI (SNB-75 CNS) of over 25.9 µM, a GI50 (SR leukemia) of 2.78 µM and a TGI (SR leukemia) of over 100 µM. The GI50 (SW-620 colon) was 4.37 µM, the TGI (SW-620 colon) was over 100 µM and the GI50 (T-47D breast) was 2.65 µM. For the same molecule, the TGI (T-47D breast) was 40.7 µM, the GI50 (TK-10 renal) was 1.7 µM and the TGI (TK-10 renal) was 39.9 µM. The GI50 (U251 CNS) was 0.973 µM, the TGI (U251 CNS) was over 34.3 µM and the GI50 (UACC-257 melanoma) was 2.35 µM. It also gave a TGI (UACC-257 melanoma) of 6.71 µM, a GI50 (UACC-62 melanoma) of 2.24 µM and a TGI (UACC-62 melanoma) of 8.91 µM.
